The record followed here is patent US20250147039A1, “Compounds for complexation of rare earth elements and/or s-, p-, d- block metals, their coordination compounds, peptide conjugates, method of their preparation and use thereof” (USTAV ORGANICKE CHEMIE A BIOCHEMIE AV CR V.V.I., priority 2021, published 2025).

What all share (type): physicochemical
Series [1] in a line: Dissociation of chelates in aq. 1.0M HCl at 80° C. (acid decomplexation kinetic inertness) (Chart 18).
Series [2] is described as follows: Dissociation of chelates in aq. 6.0M HCl at 80° C. (acid decomplexation kinetic inertness) (Chart 17).
Series [3] is described as follows: Dissociation of chelates in aq. 0.1M HCl at 80° C. (acid decomplexation kinetic inertness) (Chart 19).
A short description of series [4]: Dissociation of chelates in aq. 0.1M HCl at RT (acid decomplexation kinetic inertness) (Chart 20).

Molecules are shown by their SMILES.

With `O=P1(c2ccccc2)C[N@@]2CC[N@]3CC[N@@](CC[N@](CC2)Cc2cccc(n2)-c2cnnn2Cc2cccc(n2)C3)CP(=O)(c2ccccc2)[O][Gd][O]1` (stereo partly shown) [TD925], the “fraction of intact chelate” value in series [1] (1 month) is on record as 0%; in series [1] (1 week), 21%; in series [1] (1 hour) it was 100%; in series [1] (1 day), 82%; in series [2] (1 month), 0%; in series [2] (1 week) it was 0%. For the same molecule, the “fraction of intact chelate” value was 77% in series [2] (1 hour); 0% in series [2] (1 day); 60% in series [3] (1 month); 90% in series [3] (1 week); 100% in series [3] (1 hour); 98% in series [3] (1 day). Also, the “fraction of intact chelate” value in series [4] (1 month), in series [4] (1 week), in series [4] (1 hour) and in series [4] (1 day) was 100% throughout.
